{"source": "patent US9322034B2", "about": "“Compositions and methods for detecting and modulating cell death by a translation regulated gene expression system” (Wayne State University, priority 2007, dated 2016)", "type_in_all_cases": "cell-based, human", "key": {"[1]": {"tested_on": "HEK293 TRplp-fLUC and TRdm-fLUC subclones", "assay": "Cytotoxicity assay by immunofluorescence of fLUC protein", "details": "12 hr", "text": "To examine TR-mediated translation from the TR-fLUC cassettes, the translated fLUC protein requires immunolabeling with fluorescent antibodies. In this study, HEK293 cells transformed with the CMV-fLUC, TRplp-fLUC or TRdm-fLUC expression cassettes are visualized following immunodetection of the fLUC protein using a primary anti-fLUC antibody (Sigma) and a species-specific rhodamine-labeled secondary antibody (Kirkegaard and Perry Laboratories, Inc.). DAPI labeling of nuclear DNA is a well known procedure in the art and was used to label nuclei.\nForty hours prior to toxin exposure, 300,000 cells (HEK293, HEK293 CMV-fLUC, HEK293 TRplp-fLUC subclone #3, HEK293 TRplp-fLUC subclone #17, HEK293 TRdm-fLUC subclone #12, or HEK293 TRdm, fLUC subclone #45) were plated on flame sterilized glass coverslips in a 12-well tray. Cells are cultured in complete DMEM medium. Fresh medium supplemented with 6.7 micromolar calcium ionophore A23187 is applied and slides collected at 12 hr. […] After this, the coverslips are washed in 1×PBS, labeled with DAPI (30 sec, RT), washed in 1×PBS, and mounted for fluorescence microscopy.\nIn untreated cell cultures, the frequency of fLUC-positive cells ranged from 2.4-7.2%, which is 1-3 times higher than the normal frequency of nonviable cells, as determined by Trypan blue staining. […]"}, "[2]": {"tested_on": "HEK293 TRplp-fLUC (subclone #3) and TRdm-fLUC (subclone #45) cells", "assay": "Microplate reader dose response, lysed cell luciferase assay", "details": "12 hr", "procedure": "(§1) For this example, HEK293 cells expressing the TRplp-EYFP, TRdm-EYFP, TRplp fLUC and TRdm-fLUC expression cassettes are evaluated using a microplate reader. To quantitate the TR translational response, 24,000 cells are plated in a 96-well microtiter plates and allowed to grow for about 40 hr to achieve the proper cell density prior to incubation with a toxic agent. Each well is cultured with complete DMEM medium containing either no toxin or a defined concentration of toxin and incubated at 37 C for specific time periods. At that time, fluorescence or chemiluminescence on a FLUOstar Optima (BMG Labtech) microplate reader is used measure TR-ORF response.\n(§2) For a lysed cell assay, cells are cultured as above, but in regular flat bottom 96-well trays. After toxin incubation, the 96-well plates are centrifuged as above. The media is removed, replaced with 50 microliters of Cell Lysis Buffer (25 mM Tris-phosphate (pH7.8), 10% glycerol, 1% TritonX-100, 1 mg/ml BSA, 2 mM EGTA and 2 mM DTT) and incubated for 10 min at RT. Cell lysis is verified using a phase contrast microscope, and the lysates transferred to a white bottom 96-well tray. Luminescence is developed by injection of 5 microliters of D-luciferin solution dissolved in Reaction Buffer (25 mM Glycylglycine (pH 7.8), 15 mM MgSO4, 4 mM EDTA, 15 mM Potassium phosphate, 1 mM DTT, 1 mM Coenzyme A, 6.7 mM ATP and 3.35 mM D-luciferin). After 4 sec with shaking, luminescence values were measured using the lens filter at gains of 2000-3000.\nDose response assays are necessary to define toxic concentrations of candidate cytotoxic agents. To establish a TR-mediated cellular response and identify a TR effective dose, HEK293 cells transformed with the TRplp-fLUC (subclone #3) and TRdm-fLUC (subclone #45) expression cassettes are subjected to a range of subtoxic to toxic concentrations of the calcium ionophore A23187 (0, 1 nM, 10 nM, 100 nM, 1 μM, 2 μM, 4 μM, 6 μM, 8 μM, 10 μM) for 12 hr and analyzed as described above using a lysed cell luciferase assay (FIG. 10)."}, "[3]": {"tested_on": "HEK293 TRplp-fLUC subclone #3 and HEK293 TRdm-fLUC subclone #45", "assay": "Microplate reader temporal response, lysed cell luciferase assay", "details": "6.7 micromolar", "procedure": "as §1, §2\nTemporal response assays are used to define the timing of TR-regulated translation during incubation in toxic levels of a cytotoxic agent. HEK293 TRplp-fLUC subclone #3 and HEK293 TRdm-fLUC subclone #45 are cultured in 6.7 micromolar calcium ionophore A23187 for various times (0 hr, 1.5 hr, 3 hr, 4.5 hr, 6 hr, 7.5 hr, 9 hr, 10.5 hr, 12 hr and 13.5 hr) and analyzed as described above using a lysed cell luciferase assay (FIG. 11)."}}}
{"smiles": "CNc1ccc2oc(C[C@H]3O[C@@]4(CC[C@H]3C)O[C@H]([C@H](C)C(=O)c3ccc[nH]3)[C@H](C)C[C@H]4C)nc2c1C(=O)O", "note": "[calcium ionophore A23187]", "values": [{"measurement": "increase in number of fLUC positive cells compared to untreated samples", "setting": "[1]; HEK293 TRdm-fLUC subclone #12, 6.7 micromolar", "value": 3640, "unit": "%"}, {"measurement": "increase in number of fLUC positive cells compared to untreated samples", "setting": "[1]; HEK293 TRdm-fLUC subclone #45, 6.7 micromolar", "value": 1440, "unit": "%"}, {"measurement": "fLuc activity at the 8-10 μM toxin concentrations", "setting": "[2]; 8-10 μM", "value": "decline in fLuc activity"}, {"measurement": "concentration of peak in fLUC values", "setting": "[2]; raw luciferase numbers", "value": 6, "unit": "µM"}, {"measurement": "concentration at which TR-mediated translation is initially detected", "setting": "[2]; raw luciferase numbers, each cassette", "value": 1, "unit": "µM"}, {"measurement": "TR-specific translational activity at lower subtoxic doses", "setting": "[2]; below 1 μM (1 nM, 10 nM, 100 nM)", "value": "no apparent TR-specific translational activity"}, {"measurement": "time up to which translational activity increases linearly, values adjusted to HEK293 CMV-fLUC cells", "setting": "[3]; ratio to CMV-fLUC", "value": 12, "unit": "h"}, {"measurement": "time post-incubation by which significant TR-specific translation is detected", "setting": "[3]; raw luciferase numbers", "value": "≤ 1.5", "unit": "h"}, {"measurement": "time post-incubation up to which translational activity increases linearly, then plateau", "setting": "[3]; raw luciferase numbers", "value": 9, "unit": "h"}]}
